Article PMC9619402 (Journal of Medicinal Chemistry, 2022)
In brackets after ≈: the same amount, converted by molar mass. Like-named read-outs stand apart in the source and are kept apart here. Marks after values point to notes of the source that are not given here.

Columns and labels:
In vivo DMPK, IV dosing = conditions: male, Sprague-Dawley, rat
Protocol: In vivo studies were carried out under appropriate licenses at Pharmidex (U.K.), Sygnature Discovery (U.K.), or Sai Life (India) using male Sprague-Dawley rats. […] Serial plasma samples were obtained at predetermined time points and then stored at −20 °C. Samples were then thawed, protein-precipitated with acetonitrile followed by LCMS/MS quantification.

Caco-2 permeability = type: in vitro ADME; conditions: for efflux ratio: Caco-2, Table S1
[1] = target: T1, LIMK2 (NanoLuc LIMK2 kinase fusion) (Homo sapiens, UniProt P53671); type: cell-based; conditions: HEK293 cells, 2 h; mean ± SEM
T1 construct: host or cells: HEK293
T1 sequence (P53671 whole entry, the tested form may be a part): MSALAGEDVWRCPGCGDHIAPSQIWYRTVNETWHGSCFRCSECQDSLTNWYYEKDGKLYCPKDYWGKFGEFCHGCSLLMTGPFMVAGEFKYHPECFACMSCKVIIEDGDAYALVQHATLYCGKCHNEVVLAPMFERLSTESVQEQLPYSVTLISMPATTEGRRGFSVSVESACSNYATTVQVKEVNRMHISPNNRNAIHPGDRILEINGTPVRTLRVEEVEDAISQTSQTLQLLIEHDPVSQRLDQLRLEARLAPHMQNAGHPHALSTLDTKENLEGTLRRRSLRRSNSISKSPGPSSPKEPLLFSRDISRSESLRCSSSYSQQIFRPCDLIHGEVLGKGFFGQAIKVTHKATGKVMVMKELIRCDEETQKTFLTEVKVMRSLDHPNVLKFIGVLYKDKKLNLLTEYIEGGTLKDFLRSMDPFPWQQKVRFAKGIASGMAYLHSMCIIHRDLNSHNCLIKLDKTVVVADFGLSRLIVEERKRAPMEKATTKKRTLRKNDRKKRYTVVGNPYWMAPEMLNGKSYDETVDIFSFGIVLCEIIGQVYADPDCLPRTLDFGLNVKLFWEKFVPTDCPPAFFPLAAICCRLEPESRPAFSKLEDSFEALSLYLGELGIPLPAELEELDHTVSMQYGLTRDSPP
Protocol: (§1) HEK293 cells were resuspended in growth media following routine trypsinization, neutralization, and sedimentation techniques. Cell density was adjusted to 1 ×10^5 cells/mL for each transfection in a total of 25 mL media. The transfection mix was added directly to the cells and mixed gently by inversion. The cells were then plated into T-75 tissue culture flasks and incubated for 20 h.
(§2) Kit components were purchased from Promega (Hampshire, U.K.). […] NanoBRET Tracer #10 (27.5 μL) was diluted in 192.5 μL of DMSO for use as a positive control, which was further diluted with 880 μL of tracer dilution buffer. For negative control, 20 μL of DMSO was added to 80 μL of tracer dilution buffer. LIMK1/2-transfected HEK293 cells were trypsinized, centrifuged, and resuspended in 10 mL of Opti-MEM. Extracellular NanoLuc inhibitor was added at 1:10,000 dilution to the cells, after which 85 μL of cells/well were plated into flat-bottomed, white, 96-well plates. For positive control wells, 5 μL of NanoBRET Tracer #10 was added to wells without compound. For negative controls, the DMSO/tracer dilution buffer solution was added to wells without compound. For test compounds, 10 μL of diluted compounds from the intermediate plate were added in duplicate or DMSO (for control wells) at a final concentration of 0.5% DMSO in Opti-MEM. Plates were incubated at 37 °C and 5% CO2 for 2 h. […] A solution of Nano-Glo substrate was made consisting of 72 μL of Nano-Glo substrate and 11.93 mL of Opti-MEM (without phenol red) and mixed gently by inversion 5–10 times.

[2] = target: T2, LIMK1 (NanoLuc LIMK1 kinase fusion) (Homo sapiens, UniProt P53667); type: cell-based; conditions: HEK293 cells, 2 h; mean ± SEM
T2 construct: host or cells: HEK293
T2 sequence (P53667 whole entry, the tested form may be a part): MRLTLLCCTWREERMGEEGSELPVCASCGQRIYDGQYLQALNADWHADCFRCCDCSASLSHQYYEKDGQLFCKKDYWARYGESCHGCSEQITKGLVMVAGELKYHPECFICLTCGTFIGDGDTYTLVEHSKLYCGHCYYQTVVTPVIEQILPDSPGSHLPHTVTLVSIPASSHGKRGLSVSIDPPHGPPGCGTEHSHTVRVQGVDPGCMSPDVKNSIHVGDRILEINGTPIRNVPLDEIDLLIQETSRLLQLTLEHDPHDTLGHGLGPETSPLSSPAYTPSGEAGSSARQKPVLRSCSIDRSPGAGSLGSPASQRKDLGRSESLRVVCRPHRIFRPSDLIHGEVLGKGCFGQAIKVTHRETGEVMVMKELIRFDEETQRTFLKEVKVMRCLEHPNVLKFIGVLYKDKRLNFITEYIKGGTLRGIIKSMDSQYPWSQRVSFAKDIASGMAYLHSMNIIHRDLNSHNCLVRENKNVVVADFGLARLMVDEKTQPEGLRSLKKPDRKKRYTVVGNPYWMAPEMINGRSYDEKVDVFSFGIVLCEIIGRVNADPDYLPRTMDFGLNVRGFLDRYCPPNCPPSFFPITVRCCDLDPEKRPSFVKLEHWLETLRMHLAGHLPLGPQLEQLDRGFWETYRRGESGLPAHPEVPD
Protocol: as §1, §2

[3] = system: p-cofilin levels in SH-SY5Y cells; assay: cells; conditions: Homo sapiens, 2 h, read-out: AlphaLISA pIC50 p-cofilin (converted)
Protocol: SH-SY5Y cells were plated into a 96-well plate at 20,000 cells/well. The next day, compounds were prepared in an 8-point, 3-fold serial dilution in DMSO and then further diluted to 20-fold in DMEM/F12 with 10% FBS, 1% antibiotics. SH-SY5Y cell media was replaced with fresh DMEM/F12 media containing 10% FBS and 1% antibiotics. Compounds were added to the SH-SY5Y cells in duplicate at a final compound concentration of 10 μM to 3 nM. LIMKi3 (10 μM) was used as a positive control and 0.5% DMSO was used as a negative control. Cells were placed in the incubator for 2 h, after which the media was removed, and the cells were lysed using 50 μL of AlphaLISA 1× lysis buffer (Perkin Elmer) containing protease inhibitor cocktail (Sigma-Aldrich, Dorset, U.K.) and Pierce phosphatase inhibitor cocktail (Thermofisher, U.K.). Cells were placed on a plate shaker at 350 rpm at RT. Ten microliters of total cell lysate was then transferred to a clean, flat-bottom, white 384-well plate. An acceptor bead solution was made consisting of reaction buffer 1, reaction buffer 2, activation buffer, and acceptor beads from the p-Cofilin SureFire Ultra assay kit (Perkin Elmer, Cat# ALSU-PCOF-A500). To each well in the assay, 5 μL of the acceptor mix was added to the wells under dim light; the plate was placed on a plate shaker for 2 min at 450 rpm, centrifuged briefly, and the plate was incubated at RT for 1 h. A donor solution, consisting of dilution buffer and donor beads, was added at 5 μL/well, mixed on a plate shaker, centrifuged briefly, and incubated at RT for 1 h. Finally, the plate was read on a Pherastar reader (BMG Labtech Ltd., Aylesbury, U.K.) using an AlphaLISA cartridge and AlphaLISA plate settings.

[4] = target: LIMK2 (LIMK2_347–659, kinase catalytic domain) (Homo sapiens, UniProt P53671); type: biochemical
LIMK2 (LIMK2_347–659, kinase catalytic domain), sequence (P53671 326-638 limits assumed): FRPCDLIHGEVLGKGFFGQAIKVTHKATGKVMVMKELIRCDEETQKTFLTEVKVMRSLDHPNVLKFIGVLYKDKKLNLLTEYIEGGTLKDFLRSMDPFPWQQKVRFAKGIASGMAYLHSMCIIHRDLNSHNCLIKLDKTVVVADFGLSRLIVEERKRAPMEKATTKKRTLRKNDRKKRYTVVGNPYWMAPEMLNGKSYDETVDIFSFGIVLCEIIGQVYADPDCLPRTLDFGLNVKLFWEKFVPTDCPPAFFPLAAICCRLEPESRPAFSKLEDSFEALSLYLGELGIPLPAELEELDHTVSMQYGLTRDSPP

[5] = target: PAK pLIMK1 (PAK-phosphorylated LIMK1) (Homo sapiens, UniProt P53667); assay: RapidFire mass spectrometry kinase assay, PAK-phosphorylated LIMK1; conditions: 5 nM LIMK1 + 0.4 nM PAK1 kinase domain; mean ± SEM
PAK pLIMK1 (PAK-phosphorylated LIMK1), sequence (P53667 330-637): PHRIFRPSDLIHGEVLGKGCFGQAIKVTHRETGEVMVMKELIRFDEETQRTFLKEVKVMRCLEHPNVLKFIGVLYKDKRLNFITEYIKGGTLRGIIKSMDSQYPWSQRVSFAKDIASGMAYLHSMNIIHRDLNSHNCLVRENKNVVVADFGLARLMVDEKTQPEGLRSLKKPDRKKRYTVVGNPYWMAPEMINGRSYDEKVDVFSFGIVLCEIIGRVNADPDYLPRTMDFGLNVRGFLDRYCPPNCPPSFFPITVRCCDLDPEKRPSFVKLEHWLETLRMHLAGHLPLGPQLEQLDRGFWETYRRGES

[6] = target: LIMK1 (LIMK1_330–637, kinase catalytic domain) (Homo sapiens, UniProt P53667); conditions: for preference between LIMK1 and LIMK2: RapidFire, LIMK1 versus LIMK2, at best
LIMK1 (LIMK1_330–637, kinase catalytic domain), sequence (P53667 330-637): as above

[7] = target: PAK pLIMK2 (PAK-phosphorylated LIMK2) (Homo sapiens, UniProt P53671); type: biochemical; conditions: 6 nM LIMK2 + 0.2 nM PAK1 kinase domain; mean ± SEM
PAK pLIMK2 (PAK-phosphorylated LIMK2), sequence (P53671 326-638 limits assumed): as the sequence (P53671 326-638 limits assumed) above

[8] = system: 468 kinases (scanMax panel); assay: Eurofins/DiscoverX scanMax panel (KINOMEscan) kinome profile; type: binding; conditions: fraction of kinases bound >50%
[9] = Microsomal stability, human microsomes; conditions: pH 7.4
Protocol: (§3) After mixing thoroughly, the T = 0 sample (40 μL) was immediately quenched into an 80 μL ice-cold methanol containing a 4 μM internal standard (carbamazepine). Three further samples were quenched in the same way at T = 3, 9, and 30 min. Samples were incubated on ice for 30 min before centrifugation at 4700 rpm for 20 min. The supernatant was analyzed via LCMS/MS, and compound/carbamazepine peak area ratios were calculated to determine the rate of substrate depletion.

Thermodynamic solubility = type: physicochemical; conditions: pH 7, PBS, 24 h room temperature; average of two experiments; read-out: aq. solubility
Protocol: The samples were then centrifuged at >10,000 rpm for 10 min to pellet any remaining solid. […] To prepare the standard, an 8-point, 1:3 dilution curve was prepared in DMSO with a top concentration of 1 mM, which was then diluted to 1:100 in acetonitrile containing 2 μM of carbamazepine. Standards and samples were analyzed via LCMS/MS. The compound carbamazepine peak area ratios were calculated, and the test article solubility was determined by interpolation from the standard curve.

[10] = Microsomal stability, rat microsomes; conditions: pH 7.4
Protocol: as §3

[11] = 15 nM LIMK2 catalytic domain, 4 μM CFL1, 2 mM ATP, mean ± SEM, pIC50 greater than 8.1 treat with caution
[12] = 40 nM LIMK1 catalytic domain, 4 μM CFL1, 2 mM ATP, mean ± SEM, at least three experiments unless footnoted, pIC50 greater than 7.7 treat with caution

Compound | NanoBRET pIC50 LIMK2 [1] | NanoBRET pIC50 LIMK1 [2] | IC50 [3] | RapidFire pIC50 LIMK2 [4, 11] | RapidFire pIC50 PAK pLIMK1 [5] | RapidFire pIC50 LIMK1 [6, 12] | RapidFire pIC50 PAK pLIMK2 [7] | also measured
CC(C)C(=O)Nc1ncc(-c2cc(C(F)F)nn2-c2c(Cl)cccc2Cl)s1 [Compound 4] |  |  |  |  |  |  |  | Vd (In vivo DMPK, IV dosing): 2 L/kg; half-life (In vivo DMPK, IV dosing; 0.2 mg/kg): 1.1 h; Papp A→B (Caco-2 permeability; human, Caco-2, A – B): 8.8 ×10⁻⁶ cm/s; Papp B→A (Caco-2 permeability; human, Caco-2, B – A): 12.4 ×10⁻⁶ cm/s
CCc1cccc(CC)c1NC(=O)N1Cc2n[nH]c(NC(=O)c3ccc(N4CCN(C)CC4)cc3)c2C1 [Compound 11] | <5 | <5 | > 10000 nM | 5.10 ± 0.04 | 6.24 ± 0.04 | 6.39 ± 0.03 | <5 | efflux ratio (Caco-2 permeability): high efflux; efflux ratio (Caco-2 permeability; human, read-out: Efflux ratio): 279; preference between LIMK1 and LIMK2 [6]: ~10 fold
Cn1cc(-c2[nH]c3cc(NC(=O)[C@H](N)C4CCCCC4)cc4c3c2C=NNC4=O)cn1 [Compound 16] | 6.56 ± 0.02 | 6.40 ± 0.04 | > 10000 nM | <5 | 6.76 ± 0.12 | 6.09 ± 0.07 | 5.47 ± 0.04 | 
Cc1cc(Nc2nc(N[C@@H](C)c3ccc(F)cc3)c(C#N)cc2F)n[nH]1 [Compound 12] | <5 | <5 | > 10000 nM |  | 6.52 ± 0.01 |  | 5.18 ± 0.03 | RapidFire pIC50 LIMK2 [4]: 5.71 ± 0.14; efflux ratio (Caco-2 permeability; human, read-out: Efflux ratio): 1.01; RapidFire pIC50 LIMK1 [6]: 6.82 ± 0.06; preference between LIMK1 and LIMK2 [6]: ~10 fold
CCn1c(=O)c(-c2ccc(Cl)cc2Cl)cc2cnc(Nc3ccc(N4CCNCC4)c(F)c3)nc21 [Compound 1] |  |  |  |  |  |  |  | kinome S50 ([8]; 1000 nM): 0.54 (468, 1000 nM)
CN1C(=O)[C@@H](N2CCc3c(nn(Cc4ccccc4)c3C(N)=O)C2=O)COc2cc(Cl)ccc21 [Compound 17] |  |  |  |  |  |  |  | kinome S50 ([8]; 1000 nM): 0.01 (468, 1,000 nM)
Cc1cc(Nc2cc(CN3CCOCC3)c3nc(C)c(Cc4ccc(Cl)cc4F)n3n2)n[nH]1 [Compound 13, gandotinib] | <5 | <5 | > 10000 nM | <5 | 5.98 ± 0.06 | 6.40 ± 0.03 | 5.22 ± 0.05 | efflux ratio (Caco-2 permeability): high efflux; efflux ratio (Caco-2 permeability; human, read-out: Efflux ratio): 10.2; preference between LIMK1 and LIMK2 [6]: ~10 fold
Cc1c[nH]c2ncnc(N3CCC(CN)(C(=O)Nc4cccc(OC(=O)N(C)C)c4)CC3)c12 [Compound 7] | 8.17 ^d |  |  |  |  |  | 6.51 ± 0.04 | microsomal CLint at 0.5 h, 4 µM [9]: 3 µL/min/mg; solubility at 24 h (Thermodynamic solubility): 451 µM (≈ 204 µg/mL); Vd (In vivo DMPK, IV dosing): 6.4 L/kg; clearance (In vivo DMPK, IV dosing): 98.1 mL/min/kg; half-life (In vivo DMPK, IV dosing; 0.5 mg/kg): 1.3 h; kinome S50 ([8]; 300 nM): 0.13 (468, 300 nM); microsomal CLint at 0.5 h, 4 µM [10]: 50 µL/min/mg
CCNC(=O)Nc1ncc(-c2cc(-c3c(C)cc(OC)cc3C)nc(-c3cnccn3)n2)s1 [Compound 3] | 6.33 ± 0.12 | 6.45 ± 0.14 | 457 nM | 6.87 ± 0.10 | 5.64 ± 0.06 | 7.25 ± 0.06 | 6.15 ± 0.04 | 
Cc1c[nH]c2ncnc(-c3ccc(NC(=O)N(CCO)c4ccccc4)cc3)c12 [Compound 8] |  |  |  |  |  |  |  | microsomal CLint at 0.5 h, 4 µM [9]: 8 µL/min/mg; solubility at 24 h (Thermodynamic solubility): 28 µM (≈ 10.8 µg/mL); clearance (In vivo DMPK, IV dosing): 4.2 mL/min/kg; half-life (In vivo DMPK, IV dosing): 2.2 h; Vd (In vivo DMPK, IV dosing; 1 mg/kg): 0.5 L/kg; microsomal CLint at 0.5 h, 4 µM [10]: 18 µL/min/mg
Cc1c[nH]c2ncnc(N3CCN(C(=O)Nc4cccc(OC(=O)N(C)C)c4)[C@@H](C)C3)c12 [Compound 6] | 8.61 ± 0.04 | 8.28 ± 0.08 | 3.02 nM |  | 7.68 ± 0.04 |  | 7.68 ± 0.07 | RapidFire pIC50 LIMK2 [4]: 8.74 ± 0.12; RapidFire pIC50 LIMK1 [6]: 8.70 ± 0.07
O=C(Nc1ncc(-c2cc(C(F)F)nn2-c2c(Cl)cccc2Cl)s1)C1CC1 [Compound 2] | 7.79 ± 0.02 | 7.09 ± 0.08 | 39.8 nM | 7.52 ± 0.04 | 7.00 ± 0.03 | 7.75 ± 0.04 | 6.56 ± 0.06 | 
